Laboratory results taken from article PMC8347608, “Natural Compounds Isolated from Stachybotrys chartarum Are Potent Inhibitors of Human Protein Kinase CK2” (Molecules, 2021).
Where two headings read alike, the source gives them in different places.

Columns and labels:
[1] = molecular target: human recombinant CK2 holoenzyme (Homo sapiens, UniProt P68400); assay: CE-based CK2 activity assay (substrate peptide RRRDDDSDDD); type: biochemical
[2] = test system: MCF7 NucLight Green cells; assay: IncuCyte live-cell imaging, cell growth (confluence); type: cell-based, human; settings: 48 h
[3] = test system: MCF7 cells
[4] = test system: A427 cells; assay: MTT cell viability assay; settings: 48 h; for reduction of cell viability: 10 µM, data not shown
[5] = test system: A427 cells; assay: IncuCyte live-cell imaging, cell growth (confluence); type: cell-based, human; settings: 48 h
[6] = test system: A431 cells; assay: as above; type: cell-based, human; settings: 48 h
[7] = test system: MCF7 NucLight Green cells; assay: EdU cell proliferation assay; type: cell-based, human; settings: for proliferating cells relative to control: 24 h incubation
[8] = in vitro; settings: human
[9] = test system: A431 cells; assay: MTT cell viability assay; settings: 48 h; for reduction of cell viability: 10 µM, data not shown
[10] = MTT cell viability assay; settings: human, cell viability (% of control)
[11] = molecular target: T1, LDH-5 from rabbit muscle (Oryctolagus cuniculus, UniProt P13491); assay: LDH assay (NADH absorption at 340 nm); type: biochemical; settings: 10 µM compound; data not shown
T1 construct: LDH-5 from rabbit muscle; purchased Roche Diagnostics GmbH, Mannheim, Germany; host or cells: rabbit muscle
Text: A reaction of aldehyde groups appearing at position 4´and 5´ of the phenylspirodrimanes such as acetoxystachybotrydial acetate (Figure 1) with amino acids in proteins has been reported before. The ATP dependency of the IC50 value as shown above is a clear indicator that the interaction between the compound and CK2 seems to be specific and is not due to any non-specific reaction of the dialdehydes of phenylspirodrimanes with amines in a protein. Finally, to rule out this aspect, the inhibitory effect of acetoxystachybotrydial acetate on lactate dehydrogenase (LDH) was determined. Even at a concentration of 10 µM, no inhibition of LDH by acetoxystachybotrydial acetate was observed, indicating no non-specific interaction of acetoxystachybotrydial acetate by coupling to protein amines (data not shown).
For the determination of enzymatic activity of lactate dehydrogenase (LDH), 0.25 µg of LDH-5 from rabbit muscle (Roche Diagnostics GmbH, Mannheim, Germany) was incubated in phosphate buffered saline (PBS) containing 0.25 mM nicotinamide adenine dinucleotide (NADH) and 0.625 mM pyruvate in a total volume of 1 mL at room temperature. Absorption at 340 nm was monitored every 5 s within 5 min. For the determination of inhibitory activity of phenylspirodrimanes towards LDH, acetoxystachybotrydial acetate was added in a final concentration of 10 µM; 0.1% DMSO served as a control.

[12] = test system: MCF7 cells; design: method as in PMID 30965682; settings: other human CK2 inhibitor, compared with MCF7 value; cited from earlier work
[13] = test system: MCF7 cells; assay: MTT cell viability assay; settings: 100 µM, 48 h
[14] = read-out: % Inhibition at 10 µM
[15] = nine concentrations 0.001-100 µM, mean ± SD, three independent experiments, read-out: IC50
[16] = 10 µM compound, relative to DMSO control, read-out: % Inhibition at 10 µM

human recombinant CK2 holoenzyme, sequence (P68400 whole entry): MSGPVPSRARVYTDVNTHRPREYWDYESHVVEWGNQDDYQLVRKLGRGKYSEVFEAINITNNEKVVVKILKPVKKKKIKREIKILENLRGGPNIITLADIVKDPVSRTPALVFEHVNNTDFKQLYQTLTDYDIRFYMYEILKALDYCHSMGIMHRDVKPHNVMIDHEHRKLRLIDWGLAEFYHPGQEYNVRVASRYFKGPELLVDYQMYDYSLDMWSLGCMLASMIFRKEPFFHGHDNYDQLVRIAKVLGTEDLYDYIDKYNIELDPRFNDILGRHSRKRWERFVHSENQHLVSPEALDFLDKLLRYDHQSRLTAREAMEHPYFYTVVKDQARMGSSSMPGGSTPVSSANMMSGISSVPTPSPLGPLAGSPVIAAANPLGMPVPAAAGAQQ
human recombinant CK2 holoenzyme, sequence (P67870 whole entry partner): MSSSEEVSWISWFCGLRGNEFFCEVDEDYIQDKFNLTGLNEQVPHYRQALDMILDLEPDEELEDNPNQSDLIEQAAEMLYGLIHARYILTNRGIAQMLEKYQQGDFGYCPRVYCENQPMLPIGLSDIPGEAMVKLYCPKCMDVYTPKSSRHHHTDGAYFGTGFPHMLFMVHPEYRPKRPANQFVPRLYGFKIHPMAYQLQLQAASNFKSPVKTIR

## CC(C)=CCC/C(C)=C/CC[C@@]1(C)C=Cc2c(O)cc(C)c(C=O)c2O1 [Stachybotrychromene A]
[1]; [14]
  inhibition at 10 µM: 26%

## CC(=O)O[C@@H]1CC[C@@]2(C)[C@@H](CC[C@@H](C)[C@]23Cc2c(O)cc(CO)c(C=O)c2O3)C1(C)C [Stachybotrysin B]
[1]
  % Inhibition at 10 µM: 50%
[1]; [15]
  IC50: 13.4 µM
[1]; read-out: % Inhibition at 10 µM, 10 µM compound, relative to DMSO control
  inhibition at 10 µM: > 50%

## CC(C)=CCCC(C)=CCCC1(C)C=Cc2c(O)cc(C=O)c(C=O)c2O1 (centres unmarked) [Stachybotrychromene C]
[2]; 1 µM
  cell growth (confluence): no inhibition of growth
[2]; 100 µM
  cell growth (confluence): reduce the growth
[3]; 100 µM
  cell viability (% of control): not decreased
[4]; 1 µM
  reduction of cell viability (by %): 32%
[4]
  reduction of cell viability: Almost no further reduction
[4]; 100 µM
  increase of inhibitory effect on cell viability compared with 1 µM: ~10%
[5]; 1 µM
  cell growth (confluence): no inhibition of growth
[5]; 100 µM
  cell growth (confluence): no other cell line was affected
[6]; 1 µM
  cell growth (confluence): no inhibition of growth
[6]; 100 µM
  cell growth (confluence): no other cell line was affected
[7]; 100 µM
  proliferating cells relative to control: negligible effects
[8]
  viability at 48 h, 1 µM: 155%
[9]; 1 µM
  reduction of cell viability (by %): 27%
[9]
  reduction of cell viability: Almost no further reduction
[9]; 100 µM
  increase of inhibitory effect on cell viability compared with 1 µM: ~10%
[1]; [15]
  IC50: 0.32 µM

## CC(=O)O[C@@H]1[C@H](OC(C)=O)C[C@@]2(C)[C@@H](CC[C@@H](C)[C@]23Cc2c(O)cc(CO)c(C=O)c2O3)C1(C)C [Stachybonoid D]
[1]; [16]
  inhibition at 10 µM: 47%

## CC(=O)OC1CC2(C)C(CCC(C)C23Cc2c(O)cc(C=O)c(C=O)c2O3)C(C)(C)C1OC(C)=O (centres unmarked) [Acetoxystachybotrydial acetate]
[2]; 1 µM
  cell growth (confluence): completely blocked
[2]; 1 µM, compared with 1% DMSO control
  total number of cells (phase contrast images): strongly reduced
[10]; 1 µM
  viability at 48 h, 1 µM: 14%
[10]; 100 µM
  viability at 48 h, 100 µM: 12%
[5]; 1 µM
  cell growth (confluence): strongly impaired
[6]; 1 µM
  cell growth (confluence): completely blocked
[7]; 1 µM
  proliferating cells relative to control: Less than 1%
[7]; Homo sapiens, MCF7, 24 h, read-out: EC50 inhibition of cell proliferation
  EC50: 0.39 µM
[1]
  IC50: 1.86 µM
  Ki: 1.41 µM
  mode of inhibition: ATP competitive mode of inhibition
[11]
  inhibition of LDH: no inhibition

## C[C@@H]1CC[C@H]2C(C)(C)[C@H](O)CC[C@]2(C)[C@@]12Cc1c(O)cc(CO)c(C=O)c1O2 [L-671]
[1]; [16]
  inhibition at 10 µM: 42%

## C[C@@H]1CC[C@H]2C(C)(C)[C@H](O)CC[C@]2(C)[C@@]12Cc1c(O)cc3c(c1O2)CN(CCO)C3=O [Stachybotryamide]
[1]; [14]
  inhibition at 10 µM: 21%

## COC1=CC(=O)c2c(c(O)c3oc4cc(OC)cc(C)c4c(=O)c3c2O)C1=O [bikaverin]
[12]
  EC50: 1.97 µM

## CC(=O)OC1CCC2(C)C(CCC(C)C23Cc2c(O)cc(C=O)c(C=O)c2O3)C1(C)C (centres unmarked) [Stachybotrydial acetate]
[2]; 1 µM
  cell growth (confluence): no effect
[2]; 100 µM
  cell growth (confluence): completely blocked
[3]; 1 µM
  cell viability (% of control): increased
[4]
  reduction of cell viability: not significant
[4]; 100 µM
  reduction of cell viability (by %): 82%
[5]; 1 µM
  cell growth (confluence): no effect
[5]; 100 µM
  cell growth (confluence): completely blocked
[6]; 1 µM
  cell growth (confluence): no effect
[6]; 100 µM
  cell growth (confluence): completely blocked
[9]
  reduction of cell viability: not significant
[9]; 100 µM
  reduction of cell viability (by %): 93%
[1]; [15]
  IC50: 0.69 µM
[13]
  reduction of cell viability (by %): 86%

## CC(=O)Oc1cc(O)c2c(c1C=O)O[C@@](C)(CC/C=C(\C)CCC=C(C)C)C=C2 [Stachybotrychromene B]
[1]; [14]
  inhibition at 10 µM: 47%

## C[C@@H]1CC[C@H]2C(C)(C)[C@H](O)CC[C@]2(C)[C@@]12Cc1c(O)cc(C=O)c(C=O)c1O2 [Stachybotrydial]
[1]; [15]
  IC50: 4.43 µM

## Cc1cc(O)c2c(c1)C(=O)c1cc(O)cc(O)c1C2=O [emodin, reference compound]
[7]; 1 µM
  proliferating cells relative to control: no effect
[7]; 10 µM
  proliferating cells relative to control: 77%
[7]; 100 µM
  proliferating cells relative to control: 5%

## CC(=O)O[C@@H]1CC[C@@]2(C)[C@@H](CC[C@@H](C)[C@]23Cc2c(O)cc4c(c2O3)CNC4=O)C1(C)C [Stachybotrylactam acetate]
[1]; [14]
  inhibition at 10 µM: 44%

## CC(=O)O[C@@H]1[C@H](O)C[C@@]2(C)[C@@H](CC[C@@H](C)[C@]23Cc2c(O)cc(CO)c(C=O)c2O3)C1(C)C [Stachybotrysin C]
[1]; [14]
  inhibition at 10 µM: 37%
